Assay results published in PubChem BioAssay (NCI).
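All cell lines were grown in 96-well plates and treated with compound for 48 hours. Abbreviation: GI50, concentration required for 50% inhibition of growth. At the TGI there is no net growth.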

Assays:
Experiment in all cases: NCI-60 cell line screen, 48 h
[1] = test system: MOLT-4 leukemia
[2] = test system: SN12C renal
[3] = test system: NCI-H226 lung
[4] = test system: SK-MEL-28 melanoma
[5] = test system: HL-60(TB) leukemia
[6] = test system: MALME-3M melanoma
[7] = test system: NCI-H23 lung
[8] = test system: HT29 colon
[9] = test system: SK-MEL-5 melanoma
[10] = test system: HCT-116 colon

Row | SMILES | TGI [1] | TGI [2] | TGI [3] | TGI [4] | TGI [5] | TGI [6] | TGI [7] | TGI [8] | TGI [9] | TGI [10] | GI50 [1] | GI50 [2] | GI50 [3] | GI50 [9] | GI50 [5] | GI50 [6] | GI50 [10] | GI50 [7] | GI50 [8] | GI50 [4]
1 | C/C(=N/O)C1CC=C(S(=O)(=O)c2ccccc2)C1 (stereo not drawn) | > 100 µM | > 100 µM | > 100 µM | > 100 µM | > 100 µM | > 100 µM | > 100 µM | > 100 µM |  |  |  |  |  |  |  |  |  |  |  | 
2 | OC(c1ccccc1)(c1ccccc1)c1ccccn1 | > 100 µM | > 100 µM | > 100 µM | > 100 µM | > 100 µM | > 100 µM | > 100 µM | > 100 µM | > 100 µM | > 100 µM |  |  |  |  |  |  |  |  |  | 
3 | CCN1CCN(CCOc2ccc(CNc3ccc4nc(CCC5CCCCC5)[nH]c4c3)cc2)CC1 | 6.09 µM | 11 µM | 4.94 µM |  | 3.92 µM | 3.08 µM | 6.94 µM | 2.38 µM | 3.17 µM | 2.87 µM | 1.87 µM | 2.72 µM | 1.99 µM | 1.73 µM | 1.87 µM | 1.57 µM | 1.32 µM | 2.38 µM | 0.563 µM | 
4 | CC1=C(C(=O)Nc2cccc(C(F)(F)F)c2)C(c2ccc(O)cc2)C(C(=O)Nc2cccc(C(F)(F)F)c2)=C(C)N1 | 47 µM |  | 44.3 µM | 47.7 µM | 38.7 µM | 64.4 µM | 35.8 µM | 31.7 µM | 33.6 µM | 28.1 µM |  |  |  |  |  |  |  |  |  | 
5 | Cn1cc(-c2csc(-c3c[nH]c4ncccc34)n2)c2cc(Br)cnc21 | > 100 µM |  | > 100 µM |  | > 100 µM | > 100 µM | > 100 µM | > 100 µM |  | > 100 µM | > 100 µM |  | 1.97 µM |  | > 100 µM | 3.01 µM | 2.91 µM | 2.8 µM | 6.75 µM | 
6 | CC(=O)CC(=O)CCCC(=O)Nc1ccc(Cl)cc1C | > 100 µM | > 100 µM | > 100 µM |  | > 100 µM | > 100 µM | > 100 µM | > 100 µM | > 100 µM | > 100 µM |  |  |  |  |  |  |  |  |  | 
7 | O=C(Nc1cccc(Cl)c1)Nc1cccc(Cl)c1 | > 100 µM | > 100 µM | > 100 µM | > 100 µM | > 100 µM | > 100 µM |  | > 100 µM | > 100 µM |  | 23.8 µM | > 100 µM | > 100 µM | > 100 µM | 5.02 µM | > 100 µM |  |  | 2.26 µM | > 100 µM
8 | COc1ccc(/C=C2\N=C(c3ccccc3)OC2=O)c(OCc2ccccc2)c1 | 80.6 µM | > 100 µM | > 100 µM | > 100 µM | > 100 µM | > 100 µM |  |  | 52.2 µM | > 100 µM |  |  |  |  |  |  |  |  |  | 
9 | O=[N+]([O-])c1cccc(C2SCc3nc4ccccc4n32)c1 (stereo not drawn) | > 100 µM | > 100 µM | > 100 µM | > 100 µM | > 100 µM | > 100 µM | > 100 µM | > 100 µM | 52.8 µM |  |  |  |  |  |  |  |  |  |  | 
10 | CCOC(=O)CC(=O)ON(C)C(=O)Cc1ccccc1 |  | > 100 µM | > 100 µM |  | > 100 µM | > 100 µM | > 100 µM | > 100 µM | > 100 µM | > 100 µM |  |  |  |  |  |  |  |  |  | 
11 | Cc1ccc2nc3c(Cl)cc(=O)cc-3sc2c1 | 41.5 µM |  | 79.1 µM | 81.4 µM | 20.5 µM | 75.9 µM |  | 91.7 µM | 30.8 µM | 32.2 µM |  |  |  |  |  |  |  |  |  | 
12 | CC(=O)OC1(C#N)CC2OC1C1C2N1C(=O)c1ccccc1 (stereo not drawn) | > 100 µM | > 100 µM | > 100 µM | > 100 µM | > 100 µM | > 100 µM | > 100 µM |  | > 100 µM | > 100 µM |  |  |  |  |  |  |  |  |  | 
13 | COC(=O)[C@]12CC[C@@H](C)[C@H](C)[C@@H]1C1=CC[C@@H]3[C@@]4(C)C[C@@H](OC(=O)c5ccco5)[C@H](O)[C@@](C)(CO)[C@@H]4[C@H](O)C[C@@]3(C)[C@]1(C)CC2 | 4.44 µM |  | 6.05 µM | 4.71 µM | 5.46 µM | 4.3 µM | 6.66 µM | 3.41 µM | 4.09 µM | 3.41 µM | 2.04 µM |  | 2.3 µM | 1.99 µM | 2.08 µM | 2.15 µM | 1.88 µM | 2.42 µM | 1.8 µM | 2.17 µM
14 | Cc1ccc(-n2c3c(c4c(CN5CCCCC5)c(O)ccc42)CCc2ccccc2C3=O)cc1 | > 100 µM | > 100 µM | > 100 µM |  | > 100 µM | > 100 µM | > 100 µM |  | > 100 µM | > 100 µM | > 100 µM | > 100 µM | > 100 µM | > 100 µM | 0.477 µM | > 100 µM | 43.4 µM | > 100 µM |  | 
15 | CCc1cccc(C(C)CC)c1N=C(NC(=O)c1ccccc1C(=O)NC(=Nc1c(CC)cccc1C(C)CC)SC)SC (stereo not drawn) | > 100 µM | > 100 µM | 57.1 µM | > 100 µM | 51.5 µM | > 100 µM | > 100 µM | > 100 µM |  | > 100 µM |  |  |  |  |  |  |  |  |  | 
16 | CN(C)CCNC(=O)c1cccc2nc3ccc4ccccc4c3nc12 | 0.124 µM | 0.342 µM | 0.513 µM | 1.05 µM | 0.494 µM |  | 0.221 µM | 1.25 µM | 0.236 µM | 0.205 µM |  |  |  |  |  |  |  |  |  | 
